# Results from patent publication US9328106B2, “Cyclic ether pyrazol-4-yl-heterocyclyl-carboxamide compounds and methods of use” (Genentech, Inc., priority 2012, dated 2016).
# Target: PIM1 (Homo sapiens (Human), UniProt P11309)
# Test: biochemical
# Format: biochemical
# Conditions: 20 pM PIM1, 1 μM FAM-peptide, 10 μM ATP, 90 minutes at room temperature; read-out: PIM1 LC3K (KI)
# Chain of PIM1 (P11309 whole entry): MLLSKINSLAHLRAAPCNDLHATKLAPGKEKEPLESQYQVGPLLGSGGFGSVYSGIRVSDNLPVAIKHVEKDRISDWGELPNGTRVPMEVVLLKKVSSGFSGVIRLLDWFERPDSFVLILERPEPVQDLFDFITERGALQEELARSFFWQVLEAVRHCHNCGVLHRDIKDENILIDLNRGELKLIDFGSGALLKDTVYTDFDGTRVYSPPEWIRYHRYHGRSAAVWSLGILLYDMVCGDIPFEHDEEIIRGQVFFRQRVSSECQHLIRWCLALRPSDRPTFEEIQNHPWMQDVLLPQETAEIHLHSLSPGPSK
row,Ki [nM],Compound
1,0.032,"Cn1ncc(NC(=O)c2nc(-c3c(F)cccc3F)sc2N)c1C1CC(F)(F)CC(N)CO1 (single isomer, unassigned) [Example 114, 5-amino-N-[5-(6-amino-4,4-difluoro-oxepan-2-yl)-1-methyl-pyrazol-4-yl]-2-(2,6-difluorophenyl)thiazole-4-carboxamide]"
2,0.01,"Cn1ncc(NC(=O)c2nc(-c3c(F)cccc3F)sc2N)c1[C@@H]1C[C@@H](F)[C@H](N)CCO1 (stereo in doubt) [Example 135, 5-amino-N-[5-(5-amino-4-fluoro-oxepan-2-yl)-1-methyl-pyrazol-4-yl]-2-(2,6-difluorophenyl)thiazole-4-carboxamide]"
3,0.351,"Cn1ncc(NC(=O)c2nc(-c3c(F)cccc3F)sc2N)c1[C@H]1CCC(F)[C@@H](N)CO1 (stereo in doubt) [Example 145, 5-Amino-N-[5-[6-amino-5-fluoro-oxepan-2-yl]-1-methyl-pyrazol-4-yl]-2-(2,6-difluorophenyl)thiazole-4-carboxamide]"
4,0.104,"Cn1ncc(NC(=O)c2nc(-c3c(F)cccc3F)sc2N)c1[C@@H]1CC[C@@H](CN)O1 (stereo in doubt) [Example 155, 5-Amino-N-[5-[5-(aminomethyl)tetrahydrofuran-2-yl]-1-methyl-pyrazol-4-yl]-2-(2,6-difluorophenyl)thiazole-4-carboxamide]"
5,0.032,"Cn1ncc(NC(=O)c2nc(-c3c(F)cccc3F)sc2N)c1[C@H]1C[C@@H](N)CCO1 (stereo in doubt) [Example 158, 5-Amino-N-[5-[4-aminotetrahydropyran-2-yl]-1-methyl-pyrazol-4-yl]-2-(2,6-difluorophenyl)thiazole-4-carboxamide]"
6,0.013,"Cn1ncc(NC(=O)c2nc(-c3ccncc3F)sc2N)c1[C@@]12CC[C@@H](N)[C@@H](CC1)O2 (stereo in doubt) [Example 161, 5-Amino-N-[5-[2-amino-8-oxabicyclo[3.2.1]octan-5-yl]-1-methyl-pyrazol-4-yl]-2-(3-fluoro-4-pyridyl)thiazole-4-carboxamide]"
7,0.126,"Cn1ncc(NC(=O)c2nc(-c3c(F)cccc3F)sc2N)c1[C@@H]1C[C@@H](N)[C@@H](F)CCO1 (stereo in doubt) [Example 170, 5-Amino-N-[5-[4-amino-5-fluoro-oxepan-2-yl]-1-methyl-pyrazol-4-yl]-2-(2,6-difluorophenyl)thiazole-4-carboxamide]"
8,0.456,"C[C@H]1O[C@@H](c2c(NC(=O)c3nc(-c4c(F)cccc4F)sc3N)cnn2C)CC(F)(F)[C@@]1(C)N (stereo in doubt) [Example 179, 5-Amino-N-[5-[5-amino-4,4-difluoro-5,6-dimethyl-tetrahydropyran-2-yl]-1-methyl-pyrazol-4-yl]-2-(2,6-difluorophenyl)thiazole-4-carboxamide]"
9,0.485,"Cn1ncc(NC(=O)c2nc(-c3c(F)cccc3F)sc2N)c1C1=CCOCC1 [Example 101, 5-amino-2-(2,6-difluorophenyl)-N-[5-(3,6-dihydro-2H-pyran-4-yl)-1-methyl-pyrazol-4-yl]thiazole-4-carboxamide]"
10,0.408,"Cn1ncc(NC(=O)c2nc(-c3c(F)cccc3F)sc2N)c1C1=CCCCO1 [Example 102, 5-amino-2-(2,6-difluorophenyl)-N-[5-(3,4-dihydro-2H-pyran-6-yl)-1-methyl-pyrazol-4-yl]thiazole-4-carboxamide]"
11,0.209,"COC1(c2c(NC(=O)c3nc(-c4c(F)cccc4F)sc3N)cnn2C)CCCCO1 (stereo not shown) [Example 103, 5-amino-2-(2,6-difluorophenyl)-N-[5-(2-methoxytetrahydropyran-2-yl)-1-methyl-pyrazol-4-yl]thiazole-4-carboxamide]"
12,0.424,"Cn1ncc(NC(=O)c2nc(-c3c(F)cccc3F)sc2N)c1C1CCCCO1 (stereo not shown) [Example 104, 5-amino-2-(2,6-difluorophenyl)-N-(1-methyl-5-tetrahydropyran-2-yl-pyrazol-4-yl)thiazole-4-carboxamide]"
13,0.118,"COC1(c2c(NC(=O)c3nc(-c4ncccc4F)sc3N)cnn2C)CCCCO1 (stereo not shown) [Example 105, 5-amino-2-(3-fluoro-2-pyridyl)-N-[5-(2-methoxytetrahydropyran-2-yl)-1-methyl-pyrazol-4-yl]thiazole-4-carboxamide]"
14,0.032,"Cn1ncc(NC(=O)c2nc(-c3c(F)cccc3F)sc2N)c1[C@]12CC[C@H](O1)[C@@H](O)CC2 [Example 106, 5-amino-2-(2,6-difluorophenyl)-N-(5-((1S,4S,5S)-4-hydroxy-8-oxabicyclo[3.2.1]octan-1-yl)-1-methyl-1H-pyrazol-4-yl)thiazole-4-carboxamide]"
15,0.049,"C[C@@H]1CC(O)CC[C@H](c2c(NC(=O)c3nc(-c4c(F)cccc4F)sc3N)cnn2C)O1 (stereo partly drawn) [Example 108, 5-amino-2-(2,6-difluorophenyl)-N-(5-((2R,7R)-5-hydroxy-7-methyloxepan-2-yl)-1-methyl-1H-pyrazol-4-yl)thiazole-4-carboxamide]"
16,0.425,"Cn1ncc(NC(=O)c2nc(-c3c(F)cccc3F)sc2N)c1C1CC[C@@H](O)[C@@H](O)CO1 (stereo partly drawn) [Example 111, 5-amino-2-(2,6-difluorophenyl)-N-(5-((5R,6S)-5,6-dihydroxyoxepan-2-yl)-1-methyl-1H-pyrazol-4-yl)thiazole-4-carboxamide]"

row,Ki [nM],Compound
1,0.019,"C[C@@H]1CC(N)CC[C@H](c2c(NC(=O)c3nc(-c4c(F)cccc4F)sc3N)cnn2C)O1 (stereo partly drawn) [Example 113, 5-amino-N-(5-((2R,7R)-5-amino-7-methyloxepan-2-yl)-1-methyl-1H-pyrazol-4-yl)-2-(2,6-difluorophenyl)thiazole-4-carboxamide]"
2,0.021,"Cn1ncc(NC(=O)c2nc(-c3c(F)cccc3F)sc2N)c1C1CC[C@@H](N)[C@@H](F)CO1 (stereo partly drawn) [Example 119, 5-amino-N-(5-((5R,6R)-5-amino-6-fluorooxepan-2-yl)-1-methyl-1H-pyrazol-4-yl)-2-(2,6-difluorophenyl)thiazole-4-carboxamide]"
3,0.081,"C[C@@H]1C[C@H](N)CC[C@H](c2c(NC(=O)c3nc(-c4c(F)cccc4F)sc3N)cnn2C)O1 [Example 120, 5-amino-N-(5-((2R,5R,7R)-5-amino-7-methyloxepan-2-yl)-1-methyl-1H-pyrazol-4-yl)-2-(2,6-difluorophenyl)thiazole-4-carboxamide]"
4,0.014,"Cn1ncc(NC(=O)c2nc(-c3c(F)cccc3F)sc2N)c1C1CC(F)(F)CC(N)CO1 (stereo not shown) [Example 122, 5-amino-N-[5-(6-amino-4,4-difluoro-oxepan-2-yl)-1-methyl-pyrazol-4-yl]-2-(2,6-difluorophenyl)thiazole-4-carboxamide]"
5,0.125,"CO[C@H]1CCC(c2c(NC(=O)c3nc(-c4c(F)cccc4F)sc3N)cnn2C)OC[C@@H]1N (stereo partly drawn) [Example 123, 5-amino-N-(5-((5S,6S)-6-amino-5-methoxyoxepan-2-yl)-1-methyl-1H-pyrazol-4-yl)-2-(2,6-difluorophenyl)thiazole-4-carboxamide]"
6,0.015,"Cn1ncc(NC(=O)c2nc(-c3c(F)cccc3F)sc2N)c1C1CCC(N)C(F)CO1 (stereo not shown) [Example 124, 5-amino-N-[5-(5-amino-6-fluoro-oxepan-2-yl)-1-methyl-pyrazol-4-yl]-2-(2,6-difluorophenyl)thiazole-4-carboxamide]"
7,3.5,"CC[C@@H]1C[C@H](N)CC[C@H](c2c(NC(=O)c3nc(-c4c(F)cccc4F)sc3N)cnn2C)O1 [Example 125, 5-amino-N-(5-((2R,7R)-5-amino-7-ethyloxepan-2-yl)-1-methyl-1H-pyrazol-4-yl)-2-(2,6-difluorophenyl)thiazole-4-carboxamide]"
8,0.112,"Cn1ncc(NC(=O)c2nc(-c3c(F)cccc3F)sc2N)c1C1C[C@@H](N)[C@H](F)CCO1 (stereo partly drawn) [Example 127, 5-amino-N-(5-((4R,5R)-4-amino-5-fluorooxepan-2-yl)-1-methyl-1H-pyrazol-4-yl)-2-(2,6-difluorophenyl)thiazole-4-carboxamide]"
9,0.476,"CO[C@H]1COC(c2c(NC(=O)c3nc(-c4c(F)cccc4F)sc3N)cnn2C)CC[C@@H]1N (stereo partly drawn) [Example 128, 5-amino-N-(5-((5S,6R)-5-amino-6-methoxyoxepan-2-yl)-1-methyl-1H-pyrazol-4-yl)-2-(2,6-difluorophenyl)thiazole-4-carboxamide]"
10,0.358,"Cn1ncc(NC(=O)c2nc(-c3c(F)cccc3F)sc2N)c1C1C[C@H](N)[C@@H](F)CCO1 (stereo partly drawn) [Example 130, 5-amino-N-(5-((4S,5S)-4-amino-5-fluorooxepan-2-yl)-1-methyl-1H-pyrazol-4-yl)-2-(2,6-difluorophenyl)thiazole-4-carboxamide]"
11,0.014,"Cn1ncc(NC(=O)c2nc(-c3c(F)cccc3F)sc2N)c1C1CC(F)(F)CC(N)CO1 (stereo not shown) [Example 132, 5-amino-N-[5-(6-amino-4,4-difluoro-oxepan-2-yl)-1-methyl-pyrazol-4-yl]-2-(2,6-difluorophenyl)thiazole-4-carboxamide]"
12,0.076,"Cn1ncc(NC(=O)c2nc(-c3c(F)cccc3F)sc2N)c1C1CC(F)(F)CC(N)CO1 (stereo not shown) [Example 133, 5-amino-N-[5-(6-amino-4,4-difluoro-oxepan-2-yl)-1-methyl-pyrazol-4-yl]-2-(2,6-difluorophenyl)thiazole-4-carboxamide]"
13,0.054,"Cn1ncc(NC(=O)c2nc(-c3c(F)cccc3F)sc2N)c1C1CCC(O)CCO1 (stereo not shown) [Example 134, 5-amino-2-(2,6-difluorophenyl)-N-[5-(5-hydroxyoxepan-2-yl)-1-methyl-pyrazol-4-yl]thiazole-4-carboxamide]"
14,0.057,"CO[C@@H]1C[C@@H](c2c(NC(=O)c3nc(-c4c(F)cccc4F)sc3N)cnn2C)OCC[C@H]1N [Example 136, 5-amino-N-(5-((2S,4R,5R)-5-amino-4-methoxyoxepan-2-yl)-1-methyl-1H-pyrazol-4-yl)-2-(2,6-difluorophenyl)thiazole-4-carboxamide]"
15,0.099,"Cn1ncc(NC(=O)c2nc(-c3c(F)cccc3F)sc2N)c1[C@H]1C[C@H](F)[C@@H](N)CCO1 [Example 137, 5-amino-N-(5-((2R,4S,5S)-5-amino-4-fluorooxepan-2-yl)-1-methyl-1H-pyrazol-4-yl)-2-(2,6-difluorophenyl)thiazole-4-carboxamide]"
